PubChem BioAssay AID2060891 (Molecular Pharmacology Branch, DTP, NCI, 2025)

Tested on: K98450-129-R-PDC complex spheroid growth, percent test/control
Assay: Anticancer human tumor K98450-129-R-PDC patient-derived colon adenocarcinoma cell line growth inhibition [RAS]
Conditions: for IC50: curve of first compound; for viability, T/C: stronger effect = lower value
How it was run: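 Tumour cells grown as complex spheroids with HUVEC endothelial cells and mesenchymal stem cells, treated with RAS pathway inhibitor combinations. Each agent spans half-log steps from near clinical Cmax, or 10 microM where Cmax is unknown.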

[1] = second compound 0.000949 µM, first compound 0.000949 µM
[2] = second compound 0.000949 µM, first compound 0.003 µM
[3] = second compound 0.000949 µM, first compound 0.00949 µM
[4] = second compound 0.000949 µM, first compound 0.03 µM
[5] = second compound 0.000949 µM, first compound 0.0949 µM
[6] = second compound 0.000949 µM, first compound 0.3 µM
[7] = second compound 0.003 µM, first compound 0.000949 µM
[8] = second compound 0.003 µM, first compound 0.003 µM
[9] = second compound 0.003 µM, first compound 0.00949 µM
[10] = second compound 0.003 µM, first compound 0.03 µM
[11] = second compound 0.003 µM, first compound 0.0949 µM
[12] = second compound 0.003 µM, first compound 0.3 µM
[13] = second compound 0.00949 µM, first compound 0.000949 µM
[14] = second compound 0.00949 µM, first compound 0.003 µM
[15] = second compound 0.00949 µM, first compound 0.00949 µM
[16] = second compound 0.00949 µM, first compound 0.03 µM
[17] = second compound 0.00949 µM, first compound 0.0949 µM
[18] = second compound 0.00949 µM, first compound 0.3 µM
[19] = second compound 0.03 µM, first compound 0.000949 µM
[20] = second compound 0.03 µM, first compound 0.003 µM
[21] = second compound 0.03 µM, first compound 0.00949 µM
[22] = second compound 0.03 µM, first compound 0.03 µM
[23] = second compound 0.03 µM, first compound 0.0949 µM
[24] = second compound 0.03 µM, first compound 0.3 µM
[25] = second compound 0.0949 µM, first compound 0.000949 µM
[26] = second compound 0.0949 µM, first compound 0.003 µM
[27] = second compound 0.0949 µM, first compound 0.00949 µM
[28] = second compound 0.0949 µM, first compound 0.03 µM
[29] = second compound 0.0949 µM, first compound 0.0949 µM
[30] = second compound 0.0949 µM, first compound 0.3 µM
[31] = second compound 0.3 µM, first compound 0.000949 µM
[32] = second compound 0.3 µM, first compound 0.003 µM
[33] = second compound 0.3 µM, first compound 0.00949 µM
[34] = second compound 0.3 µM, first compound 0.03 µM
[35] = second compound 0.3 µM, first compound 0.0949 µM
[36] = second compound 0.3 µM, first compound 0.3 µM
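Note: spheroids exposed to agents for seven days before the viability readout.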
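Throughout, for viability, T/C: luminescence used as a proxy for viable cell amount.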

SMILES: C=CC(=O)N1CCN(c2nc(OCC3CCCN3C)nc3c(F)c(-c4nc(N)cc(C)c4C(F)(F)F)c(Cl)cc23)C(C)C1 (stereo unspecified) + CCn1c(-c2cccnc2C(C)OC)c2c3cc(ccc31)N1CCOC(CC(NC(=O)C(C(C)C)N(C)C(=O)C3(F)CCN(C(=O)C#CC(C)(C)N(C)C)CC3)C(=O)N3CCCC(N3)C(=O)OCC(C)(C)C2)C1
- IC50 (second compound 0.000949 µM): 179 nM
- IC50 (second compound 0.003 µM): 112 nM
- IC50 (second compound 0.00949 µM): 3.58 nM
- IC50 (second compound 0.03 µM): < 3.16 nM
- IC50 (second compound 0.0949 µM): < 3.16 nM
- IC50 (second compound 0.3 µM): < 3.16 nM
- viability, T/C (second compound 0.000949 µM, first compound 0.00316 µM): 81.6%
- viability, T/C (second compound 0.000949 µM, first compound 0.01 µM): 69.9%
- viability, T/C (second compound 0.000949 µM, first compound 0.0316 µM): 63.1%
- viability, T/C (second compound 0.000949 µM, first compound 0.1 µM): 55.4%
- viability, T/C (second compound 0.000949 µM, first compound 0.316 µM): 46.6%
- viability, T/C (second compound 0.000949 µM, first compound 1 µM): 36%
- viability, T/C (second compound 0.003 µM, first compound 0.00316 µM): 69.4%
- viability, T/C (second compound 0.003 µM, first compound 0.01 µM): 54%
- viability, T/C (second compound 0.003 µM, first compound 0.0316 µM): 52.8%
- viability, T/C (second compound 0.003 µM, first compound 0.1 µM): 56.2%
- viability, T/C (second compound 0.003 µM, first compound 0.316 µM): 45.9%
- viability, T/C (second compound 0.003 µM, first compound 1 µM): 35.2%
- viability, T/C (second compound 0.00949 µM, first compound 0.00316 µM): 52.8%
- viability, T/C (second compound 0.00949 µM, first compound 0.01 µM): 46.8%
- viability, T/C (second compound 0.00949 µM, first compound 0.0316 µM): 43.8%
- viability, T/C (second compound 0.00949 µM, first compound 0.1 µM): 44.9%
- viability, T/C (second compound 0.00949 µM, first compound 0.316 µM): 39.9%
- viability, T/C (second compound 0.00949 µM, first compound 1 µM): 41.9%
- viability, T/C (second compound 0.03 µM, first compound 0.00316 µM): 39.4%
- viability, T/C (second compound 0.03 µM, first compound 0.01 µM): 37.1%
- viability, T/C (second compound 0.03 µM, first compound 0.0316 µM): 40.4%
- viability, T/C (second compound 0.03 µM, first compound 0.1 µM): 40.7%
- viability, T/C (second compound 0.03 µM, first compound 0.316 µM): 43.2%
- viability, T/C (second compound 0.03 µM, first compound 1 µM): 39.9%
- viability, T/C (second compound 0.0949 µM, first compound 0.00316 µM): 36.6%
- viability, T/C (second compound 0.0949 µM, first compound 0.01 µM): 34.3%
- viability, T/C (second compound 0.0949 µM, first compound 0.0316 µM): 42.1%
- viability, T/C (second compound 0.0949 µM, first compound 0.1 µM): 37.2%
- viability, T/C (second compound 0.0949 µM, first compound 0.316 µM): 43.5%
- viability, T/C (second compound 0.0949 µM, first compound 1 µM): 33.7%
- viability, T/C (second compound 0.3 µM, first compound 0.00316 µM): 29.8%
- viability, T/C (second compound 0.3 µM, first compound 0.01 µM): 35.3%
- viability, T/C (second compound 0.3 µM, first compound 0.0316 µM): 42.9%
- viability, T/C (second compound 0.3 µM, first compound 0.1 µM): 29%
- viability, T/C (second compound 0.3 µM, first compound 0.316 µM): 36.1%
- viability, T/C (second compound 0.3 µM, first compound 1 µM): 38%

SMILES: CC1(C)CCC(Nc2ncc(C(F)(F)F)c(-c3c[nH]c4c(P(C)(C)=O)c(C#N)ccc34)n2)CN1 (stereo unspecified) + CCn1c(-c2cccnc2C(C)OC)c2c3cc(ccc31)N1CCOC(CC(NC(=O)C(C(C)C)N(C)C(=O)C3(F)CCN(C(=O)C#CC(C)(C)N(C)C)CC3)C(=O)N3CCCC(N3)C(=O)OCC(C)(C)C2)C1
- IC50 (second compound 0.000949 µM): > 300 nM
- IC50 (second compound 0.003 µM): > 300 nM
- IC50 (second compound 0.00949 µM): > 300 nM
- IC50 (second compound 0.03 µM): < 0.949 nM
- IC50 (second compound 0.0949 µM): < 0.949 nM
- IC50 (second compound 0.3 µM): < 0.949 nM
- viability, T/C [1]: 88.2%
- viability, T/C [2]: 72.2%
- viability, T/C [3]: 83.1%
- viability, T/C [4]: 79.9%
- viability, T/C [5]: 80.8%
- viability, T/C [6]: 53.8%
- viability, T/C [7]: 72.4%
- viability, T/C [8]: 52.9%
- viability, T/C [9]: 64.5%
- viability, T/C [10]: 67.7%
- viability, T/C [11]: 61.1%
- viability, T/C [12]: 50.4%
- viability, T/C [13]: 52.5%
- viability, T/C [14]: 45.5%
- viability, T/C [15]: 52.7%
- viability, T/C [16]: 53.4%
- viability, T/C [17]: 51.8%
- viability, T/C [18]: 49.6%
- viability, T/C [19]: 45%
- viability, T/C [20]: 42.9%
- viability, T/C [21]: 43.2%
- viability, T/C [22]: 45.1%
- viability, T/C [23]: 48.2%
- viability, T/C [24]: 43.5%
- viability, T/C [25]: 39.2%
- viability, T/C [26]: 41.1%
- viability, T/C [27]: 44.7%
- viability, T/C [28]: 41.8%
- viability, T/C [29]: 50.3%
- viability, T/C [30]: 43.1%
- viability, T/C [31]: 34.3%
- viability, T/C [32]: 40.7%
- viability, T/C [33]: 43.1%
- viability, T/C [34]: 36.2%
- viability, T/C [35]: 46.9%
- viability, T/C [36]: 42%

SMILES: CCc1c2c(nc3ccc(O)cc13)-c1cc3c(c(=O)n1C2)COC(=O)[C@]3(O)CC + CCn1c(-c2cccnc2C(C)OC)c2c3cc(ccc31)N1CCOC(CC(NC(=O)C(C(C)C)N(C)C(=O)C3(F)CCN(C(=O)C#CC(C)(C)N(C)C)CC3)C(=O)N3CCCC(N3)C(=O)OCC(C)(C)C2)C1
- IC50 (second compound 0.000949 µM): 16.9 nM
- IC50 (second compound 0.003 µM): 2.54 nM
- IC50 (second compound 0.00949 µM): < 0.949 nM
- IC50 (second compound 0.03 µM): < 0.949 nM
- IC50 (second compound 0.0949 µM): < 0.949 nM
- IC50 (second compound 0.3 µM): < 0.949 nM
- viability, T/C [1]: 71.1%
- viability, T/C [2]: 64.6%
- viability, T/C [3]: 60.9%
- viability, T/C [4]: 39.8%
- viability, T/C [5]: 30.2%
- viability, T/C [6]: 25.4%
- viability, T/C [7]: 58.1%
- viability, T/C [8]: 48.9%
- viability, T/C [9]: 38.9%
- viability, T/C [10]: 30.9%
- viability, T/C [11]: 24.3%
- viability, T/C [12]: 15.8%
- viability, T/C [13]: 44.3%
- viability, T/C [14]: 36.2%
- viability, T/C [15]: 32.8%
- viability, T/C [16]: 22.7%
- viability, T/C [17]: 16.9%
- viability, T/C [18]: 14%
- viability, T/C [19]: 32.8%
- viability, T/C [20]: 40.1%
- viability, T/C [21]: 25.6%
- viability, T/C [22]: 24.7%
- viability, T/C [23]: 19.5%
- viability, T/C [24]: 11.6%
- viability, T/C [25]: 35.1%
- viability, T/C [26]: 33.8%
- viability, T/C [27]: 27.9%
- viability, T/C [28]: 22.3%
- viability, T/C [29]: 20%
- viability, T/C [30]: 11.5%
- viability, T/C [31]: 36%
- viability, T/C [32]: 32.7%
- viability, T/C [33]: 28.5%
- viability, T/C [34]: 18.3%
- viability, T/C [35]: 15.4%
- viability, T/C [36]: 10.7%
